Data published in ChEMBL document CHEMBL5058649, “Data for DCP probe BAY 1816032” (2022).
The source made the active and inactive calls. No cut-off for these calls is given here.

Key:
[1] = system: HeLa; experiment: HeLa (presence of 3 nM Paclitaxel) cell line Proliferation assay; type: functional, Homo sapiens; conditions: time 4 day
[2] = target: Rho-associated protein kinase 2 (Homo sapiens) (UniProt O75116); experiment: ROCK2 DiscoveRx kinase panel; conditions: Compound concentration 1.0 uM
Sequence of Rho-associated protein kinase 2 (Homo sapiens) (O75116 whole entry, looked up): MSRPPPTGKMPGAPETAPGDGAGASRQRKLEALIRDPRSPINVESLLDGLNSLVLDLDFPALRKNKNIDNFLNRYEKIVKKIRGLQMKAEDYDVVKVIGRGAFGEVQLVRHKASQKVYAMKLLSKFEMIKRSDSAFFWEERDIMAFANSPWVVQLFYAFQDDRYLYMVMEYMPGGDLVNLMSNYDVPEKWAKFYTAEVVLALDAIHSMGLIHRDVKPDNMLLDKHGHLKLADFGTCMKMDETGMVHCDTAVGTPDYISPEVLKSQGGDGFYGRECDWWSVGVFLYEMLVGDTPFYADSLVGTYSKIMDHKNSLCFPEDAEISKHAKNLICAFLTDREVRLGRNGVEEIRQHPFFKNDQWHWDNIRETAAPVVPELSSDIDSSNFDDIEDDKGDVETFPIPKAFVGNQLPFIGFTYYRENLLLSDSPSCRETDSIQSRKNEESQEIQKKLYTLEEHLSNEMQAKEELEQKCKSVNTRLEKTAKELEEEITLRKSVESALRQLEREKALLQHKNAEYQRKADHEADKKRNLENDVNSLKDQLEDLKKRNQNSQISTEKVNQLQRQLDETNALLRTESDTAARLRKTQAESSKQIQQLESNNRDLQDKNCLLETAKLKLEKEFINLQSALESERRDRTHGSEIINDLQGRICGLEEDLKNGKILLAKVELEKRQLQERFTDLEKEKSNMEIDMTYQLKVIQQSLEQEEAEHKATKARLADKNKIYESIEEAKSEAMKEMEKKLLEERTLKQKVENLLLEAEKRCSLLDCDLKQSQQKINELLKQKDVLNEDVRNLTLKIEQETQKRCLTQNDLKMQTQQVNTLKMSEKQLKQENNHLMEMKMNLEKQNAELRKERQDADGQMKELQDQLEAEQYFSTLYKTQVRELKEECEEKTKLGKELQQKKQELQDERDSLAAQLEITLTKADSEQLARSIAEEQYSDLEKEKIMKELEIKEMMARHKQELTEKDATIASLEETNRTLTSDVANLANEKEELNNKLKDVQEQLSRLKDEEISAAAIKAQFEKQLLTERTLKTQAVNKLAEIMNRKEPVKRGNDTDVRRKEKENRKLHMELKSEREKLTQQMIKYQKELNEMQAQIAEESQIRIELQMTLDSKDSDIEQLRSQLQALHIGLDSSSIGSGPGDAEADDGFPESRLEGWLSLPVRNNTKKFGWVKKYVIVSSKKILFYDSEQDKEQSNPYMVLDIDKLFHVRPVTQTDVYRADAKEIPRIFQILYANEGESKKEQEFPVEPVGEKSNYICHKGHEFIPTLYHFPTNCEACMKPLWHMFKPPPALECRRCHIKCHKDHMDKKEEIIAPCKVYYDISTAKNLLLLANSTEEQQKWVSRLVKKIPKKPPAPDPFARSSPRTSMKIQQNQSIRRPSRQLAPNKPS

[3] = target: Tyrosine-protein kinase Tec (Homo sapiens) (UniProt P42680); experiment: TEC DiscoveRx kinase panel; conditions: Compound concentration 1.0 uM
[4] = system: Caco-2; experiment: Caco2 cell line Proliferation assay; type: functional, Homo sapiens; conditions: time 4 day
[5] = target: Cyclin-dependent kinase 4/cyclin D1 (Homo sapiens) (UniProt P11802+P24385); experiment: CDK4-cyclinD1 DiscoveRx kinase panel; type: protein-complex assay; conditions: Compound concentration 1.0 uM
[6] = target: CDK4/Cyclin D3 (Homo sapiens) (UniProt P11802+P30281); experiment: CDK4-cyclinD3 DiscoveRx kinase panel; type: protein-complex assay; conditions: Compound concentration 1.0 uM
[7] = target: Serine/threonine-protein kinase VRK2 (Homo sapiens) (UniProt Q86Y07); experiment: VRK2 DiscoveRx kinase panel; conditions: Compound concentration 1.0 uM
[8] = target: Serine/threonine-protein kinase TBK1 (Homo sapiens) (UniProt Q9UHD2); experiment: TBK1 DiscoveRx kinase panel; conditions: Compound concentration 1.0 uM
Sequence of Serine/threonine-protein kinase TBK1 (Homo sapiens) (Q9UHD2 whole entry): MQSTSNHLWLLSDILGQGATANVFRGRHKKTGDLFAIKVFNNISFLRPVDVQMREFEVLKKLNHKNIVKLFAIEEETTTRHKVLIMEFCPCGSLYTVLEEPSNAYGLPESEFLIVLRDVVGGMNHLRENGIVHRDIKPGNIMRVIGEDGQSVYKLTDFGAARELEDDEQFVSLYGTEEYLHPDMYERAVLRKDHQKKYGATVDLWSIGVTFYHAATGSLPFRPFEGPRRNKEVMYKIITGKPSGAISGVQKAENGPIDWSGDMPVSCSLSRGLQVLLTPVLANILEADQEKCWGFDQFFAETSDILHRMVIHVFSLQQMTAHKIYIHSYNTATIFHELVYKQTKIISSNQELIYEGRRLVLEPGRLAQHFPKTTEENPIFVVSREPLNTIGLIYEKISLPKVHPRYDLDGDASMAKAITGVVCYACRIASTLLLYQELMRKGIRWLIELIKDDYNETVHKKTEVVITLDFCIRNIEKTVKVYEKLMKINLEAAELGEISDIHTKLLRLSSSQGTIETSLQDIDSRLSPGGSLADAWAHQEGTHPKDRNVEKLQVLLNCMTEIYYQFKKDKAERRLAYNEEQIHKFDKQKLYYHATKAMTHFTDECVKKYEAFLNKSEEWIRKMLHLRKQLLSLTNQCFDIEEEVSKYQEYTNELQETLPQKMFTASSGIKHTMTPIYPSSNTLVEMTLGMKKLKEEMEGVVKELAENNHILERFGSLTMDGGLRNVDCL

[9] = target: Mitogen-activated protein kinase 3 (Homo sapiens) (UniProt P27361); experiment: ERK1 DiscoveRx kinase panel; conditions: Compound concentration 1.0 uM
[10] = target: Kappa-type opioid receptor (Homo sapiens) (UniProt P41145); conditions: Compound concentration 10.0 uM
[11] = target: Muscarinic acetylcholine receptor M1 (Homo sapiens) (UniProt P11229); experiment: Muscarinic M1 Eurofins-Panlabs radioligand binding assay; conditions: Compound concentration 10.0 uM
Sequence of Muscarinic acetylcholine receptor M1 (Homo sapiens) (P11229 whole entry): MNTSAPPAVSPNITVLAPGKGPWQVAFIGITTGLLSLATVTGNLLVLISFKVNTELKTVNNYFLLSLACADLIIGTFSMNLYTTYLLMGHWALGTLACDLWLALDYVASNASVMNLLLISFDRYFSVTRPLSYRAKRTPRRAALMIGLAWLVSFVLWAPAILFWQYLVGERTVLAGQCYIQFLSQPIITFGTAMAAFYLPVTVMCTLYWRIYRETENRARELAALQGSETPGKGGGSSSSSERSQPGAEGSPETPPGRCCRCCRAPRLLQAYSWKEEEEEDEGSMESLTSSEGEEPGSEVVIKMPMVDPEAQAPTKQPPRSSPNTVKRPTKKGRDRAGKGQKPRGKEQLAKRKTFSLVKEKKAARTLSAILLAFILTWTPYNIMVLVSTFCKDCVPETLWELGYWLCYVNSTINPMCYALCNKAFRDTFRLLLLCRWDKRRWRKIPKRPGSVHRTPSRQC

[12] = target: Serine/threonine-protein kinase N1 (Homo sapiens) (UniProt Q16512); experiment: PKN1 DiscoveRx kinase panel; conditions: Compound concentration 1.0 uM
[13] = target: Serine/threonine-protein kinase pim-1 (Homo sapiens) (UniProt P11309); experiment: PIM1 DiscoveRx kinase panel; conditions: Compound concentration 1.0 uM
[14] = target: Testis-specific serine/threonine-protein kinase 1 (Homo sapiens) (UniProt Q9BXA7); experiment: TSSK1B DiscoveRx kinase panel; conditions: Compound concentration 1.0 uM
Sequence of Testis-specific serine/threonine-protein kinase 1 (Homo sapiens) (Q9BXA7 whole entry): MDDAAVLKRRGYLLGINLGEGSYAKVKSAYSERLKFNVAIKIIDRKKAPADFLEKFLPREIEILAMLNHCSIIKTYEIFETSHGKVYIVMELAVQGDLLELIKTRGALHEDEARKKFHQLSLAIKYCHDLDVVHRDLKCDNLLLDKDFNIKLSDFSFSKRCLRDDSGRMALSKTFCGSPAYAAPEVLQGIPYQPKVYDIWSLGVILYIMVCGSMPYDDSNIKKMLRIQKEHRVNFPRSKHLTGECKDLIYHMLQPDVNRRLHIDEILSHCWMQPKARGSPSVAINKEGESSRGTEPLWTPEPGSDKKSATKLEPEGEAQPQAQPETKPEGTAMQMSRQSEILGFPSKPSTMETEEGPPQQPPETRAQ

[15] = target: Beta-3 adrenergic receptor (Homo sapiens) (UniProt P13945); conditions: Compound concentration 10.0 uM
[16] = target: Sigma non-opioid intracellular receptor 1 (Homo sapiens, UniProt Q99720); experiment: Inhibition of Sigma 1 at 10 µM in the Eurofins-Panlabs radioligand binding assay (Eurofins_assay_278110); set-up: ligand concentration 8 nM; conditions: Compound concentration 10.0 uM
Sequence of Sigma non-opioid intracellular receptor 1 (Q99720 whole entry): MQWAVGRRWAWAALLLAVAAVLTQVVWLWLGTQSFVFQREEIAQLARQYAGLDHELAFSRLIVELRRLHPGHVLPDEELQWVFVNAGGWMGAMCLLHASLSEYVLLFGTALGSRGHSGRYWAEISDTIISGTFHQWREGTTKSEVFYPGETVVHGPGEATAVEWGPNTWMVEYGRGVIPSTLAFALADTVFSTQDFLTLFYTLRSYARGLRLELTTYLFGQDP

[17] = system: MDA-MB-436; experiment: MDA-MB-436 cell line Proliferation assay; type: functional, Homo sapiens; conditions: time 4 day
[18] = target: Alpha-1D adrenergic receptor (Homo sapiens) (UniProt P25100); experiment: Inhibition of Adrenergic alpha1D at 10 µM in the Eurofins-Panlabs radioligand binding assay (Eurofins_assay_203400); conditions: Compound concentration 10.0 uM
[19] = target: Epidermal growth factor receptor (Homo sapiens) (UniProt P00533); experiment: EGFR DiscoveRx kinase panel; conditions: Compound concentration 1.0 uM
[20] = target: Serine/threonine-protein kinase Nek5 (Homo sapiens) (UniProt Q6P3R8); experiment: NEK5 DiscoveRx kinase panel; conditions: Compound concentration 1.0 uM
[21] = target: Mitogen-activated protein kinase 9 (Homo sapiens) (UniProt P45984); experiment: JNK2 DiscoveRx kinase panel; conditions: Compound concentration 1.0 uM
[22] = target: Protein kinase C iota type (Homo sapiens) (UniProt P41743); experiment: PRKCI DiscoveRx kinase panel; conditions: Compound concentration 1.0 uM
[23] = target: Serine/threonine-protein kinase 33 (Homo sapiens) (UniProt Q9BYT3); experiment: STK33 DiscoveRx kinase panel; conditions: Compound concentration 1.0 uM
[24] = target: Sodium-dependent noradrenaline transporter (Homo sapiens, UniProt P23975); conditions: Compound concentration 10.0 uM
[25] = target: Serine/threonine-protein kinase SIK3 (Homo sapiens) (UniProt Q9Y2K2); experiment: QSK DiscoveRx kinase panel; conditions: Compound concentration 1.0 uM
[26] = target: SRSF protein kinase 3 (Homo sapiens) (UniProt Q9UPE1); experiment: SRPK3 DiscoveRx kinase panel; conditions: Compound concentration 1.0 uM
[27] = target: Mitogen-activated protein kinase kinase kinase kinase 3 (Homo sapiens) (UniProt Q8IVH8); experiment: MAP4K3 DiscoveRx kinase panel; conditions: Compound concentration 1.0 uM
[28] = target: Tyrosine-protein kinase receptor Tie-1 (Homo sapiens) (UniProt P35590); experiment: TIE1 DiscoveRx kinase panel; conditions: Compound concentration 1.0 uM
[29] = target: Myotonin-protein kinase (Homo sapiens) (UniProt Q09013); experiment: DMPK DiscoveRx kinase panel; conditions: Compound concentration 1.0 uM
[30] = target: Ephrin type-B receptor 2 (Homo sapiens) (UniProt P29323); experiment: EPHB2 DiscoveRx kinase panel; conditions: Compound concentration 1.0 uM
[31] = target: Cyclin-dependent kinase-like 1 (Homo sapiens) (UniProt Q00532); experiment: CDKL1 DiscoveRx kinase panel; conditions: Compound concentration 1.0 uM
[32] = target: Serine/threonine-protein kinase MARK1 (Homo sapiens) (UniProt Q9P0L2); experiment: MARK1 DiscoveRx kinase panel; conditions: Compound concentration 1.0 uM
[33] = target: Serine/threonine-protein kinase 16 (Homo sapiens) (UniProt O75716); experiment: STK16 DiscoveRx kinase panel; conditions: Compound concentration 1.0 uM
[34] = target: T1, Mitotic checkpoint serine/threonine-protein kinase BUB1 (Homo sapiens, UniProt O43683); experiment: ePCA binding competition (equilibrium binding assay)
T1 sequence (O43683 whole entry): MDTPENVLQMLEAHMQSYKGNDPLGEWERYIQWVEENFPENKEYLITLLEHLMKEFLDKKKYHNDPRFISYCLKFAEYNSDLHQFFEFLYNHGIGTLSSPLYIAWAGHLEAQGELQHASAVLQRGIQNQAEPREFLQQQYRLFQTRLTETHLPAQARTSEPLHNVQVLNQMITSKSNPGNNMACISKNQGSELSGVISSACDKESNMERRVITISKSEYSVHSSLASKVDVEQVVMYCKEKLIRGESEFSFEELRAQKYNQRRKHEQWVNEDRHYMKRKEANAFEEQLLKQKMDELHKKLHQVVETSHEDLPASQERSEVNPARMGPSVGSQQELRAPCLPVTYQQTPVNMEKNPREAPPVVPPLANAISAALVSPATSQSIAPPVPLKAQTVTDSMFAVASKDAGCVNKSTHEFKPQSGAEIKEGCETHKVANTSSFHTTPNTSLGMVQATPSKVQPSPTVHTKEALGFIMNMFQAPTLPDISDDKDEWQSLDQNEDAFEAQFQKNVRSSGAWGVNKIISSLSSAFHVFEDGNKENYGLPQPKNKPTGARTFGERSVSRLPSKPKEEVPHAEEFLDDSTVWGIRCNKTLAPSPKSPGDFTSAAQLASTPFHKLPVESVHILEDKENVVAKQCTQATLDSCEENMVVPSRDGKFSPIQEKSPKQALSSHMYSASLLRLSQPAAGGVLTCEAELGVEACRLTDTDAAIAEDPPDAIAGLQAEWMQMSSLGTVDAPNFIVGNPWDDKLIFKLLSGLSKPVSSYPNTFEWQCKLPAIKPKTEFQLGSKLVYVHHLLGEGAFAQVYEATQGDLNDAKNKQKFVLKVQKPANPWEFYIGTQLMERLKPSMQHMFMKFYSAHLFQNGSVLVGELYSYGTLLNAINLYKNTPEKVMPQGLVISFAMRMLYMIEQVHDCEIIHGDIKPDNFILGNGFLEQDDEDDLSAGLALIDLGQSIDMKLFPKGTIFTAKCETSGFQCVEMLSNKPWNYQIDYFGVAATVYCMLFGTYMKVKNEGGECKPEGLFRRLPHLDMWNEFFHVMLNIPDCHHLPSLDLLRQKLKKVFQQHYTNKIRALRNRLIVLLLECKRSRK

[35] = target: Dual specificity tyrosine-phosphorylation-regulated kinase 1A (Homo sapiens) (UniProt Q13627); experiment: DYRK1A DiscoveRx kinase panel; conditions: Compound concentration 1.0 uM
[36] = target: Ribosomal protein S6 kinase alpha-6 (Homo sapiens) (UniProt Q9UK32); experiment: RSK4(Kin.Dom.2-C-terminal) DiscoveRx kinase panel; conditions: Compound concentration 1.0 uM
[37] = target: Mitogen-activated protein kinase 11 (Homo sapiens) (UniProt Q15759); experiment: p38-beta DiscoveRx kinase panel; conditions: Compound concentration 1.0 uM
Sequence of Mitogen-activated protein kinase 11 (Homo sapiens) (Q15759 whole entry): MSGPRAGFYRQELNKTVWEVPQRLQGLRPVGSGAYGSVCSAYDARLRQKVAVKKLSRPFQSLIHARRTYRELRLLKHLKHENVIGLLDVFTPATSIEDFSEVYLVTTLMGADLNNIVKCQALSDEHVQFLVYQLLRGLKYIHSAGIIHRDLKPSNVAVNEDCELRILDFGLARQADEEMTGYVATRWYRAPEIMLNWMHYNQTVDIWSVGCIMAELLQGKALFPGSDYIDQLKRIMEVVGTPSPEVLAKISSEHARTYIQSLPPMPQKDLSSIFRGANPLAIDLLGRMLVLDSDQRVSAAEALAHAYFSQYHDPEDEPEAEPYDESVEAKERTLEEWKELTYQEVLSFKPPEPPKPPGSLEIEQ

[38] = target: T2, Alpha-2A adrenergic receptor (Homo sapiens) (UniProt P08913); conditions: Compound concentration 10.0 uM
T2 sequence (whole entry): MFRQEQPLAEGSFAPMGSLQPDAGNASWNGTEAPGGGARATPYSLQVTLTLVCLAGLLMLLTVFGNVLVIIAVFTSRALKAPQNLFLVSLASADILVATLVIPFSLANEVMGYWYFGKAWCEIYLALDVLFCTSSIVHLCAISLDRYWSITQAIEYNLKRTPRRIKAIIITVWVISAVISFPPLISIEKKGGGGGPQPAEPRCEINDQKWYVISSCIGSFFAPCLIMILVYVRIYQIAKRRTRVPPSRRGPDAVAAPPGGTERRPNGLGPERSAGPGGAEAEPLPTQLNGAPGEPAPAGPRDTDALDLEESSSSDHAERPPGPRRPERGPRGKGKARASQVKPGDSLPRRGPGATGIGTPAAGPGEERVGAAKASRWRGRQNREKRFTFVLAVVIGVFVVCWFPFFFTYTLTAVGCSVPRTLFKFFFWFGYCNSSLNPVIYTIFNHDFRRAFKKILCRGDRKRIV

[39] = target: Mitogen-activated protein kinase kinase kinase 5 (Homo sapiens) (UniProt Q99683); experiment: ASK1 DiscoveRx kinase panel; conditions: Compound concentration 1.0 uM
[40] = target: Aurora kinase A (Homo sapiens) (UniProt O14965); experiment: AURKA DiscoveRx kinase panel; conditions: Compound concentration 1.0 uM
Sequence of Aurora kinase A (Homo sapiens) (O14965 whole entry): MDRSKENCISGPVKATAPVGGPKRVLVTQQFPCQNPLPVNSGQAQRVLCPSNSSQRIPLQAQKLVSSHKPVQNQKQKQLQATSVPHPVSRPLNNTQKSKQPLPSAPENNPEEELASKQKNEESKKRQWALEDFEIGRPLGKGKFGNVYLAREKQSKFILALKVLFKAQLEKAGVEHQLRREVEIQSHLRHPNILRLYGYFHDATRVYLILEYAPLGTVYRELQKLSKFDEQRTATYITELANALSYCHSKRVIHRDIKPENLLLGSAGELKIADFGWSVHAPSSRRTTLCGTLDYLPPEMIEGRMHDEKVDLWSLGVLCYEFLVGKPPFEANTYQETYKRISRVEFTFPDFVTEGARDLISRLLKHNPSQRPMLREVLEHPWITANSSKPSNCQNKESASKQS

[41] = target: Androgen receptor (Homo sapiens) (UniProt P10275); conditions: Compound concentration 10.0 uM
[42] = target: T1, Mitotic checkpoint serine/threonine-protein kinase BUB1; experiment: Abrogation of histone H2A-Thr120 phosphorylation

Q: With `COc1cnccc1Nc1nc(-c2nn(Cc3c(F)cc(OCCO)cc3F)c3ccccc23)ncc1OC` as the compound, how does the “Cell Proliferation IC50” value [1] read?
A: 63 nM

Q: And the residual activity [2]?
A: 100%

Q: And the residual activity [3]?
A: 100%

Q: What about the “Cell Proliferation IC50” value [4] of the same compound?
A: 1000 nM

Q: And the residual activity [5]?
A: 100%

Q: What about the residual activity [6] of the same compound?
A: 100%

Q: And the residual activity [7]?
A: 94%

Q: What about the residual activity [8] of the same compound?
A: 94%

Q: What about the residual activity [9] of the same compound?
A: 88%

Q: What about the inhibition [10] of the same compound?
A: 26%

Q: What about the inhibition [11] of the same compound?
A: 32%

Q: What about the residual activity [12] of the same compound?
A: 92%

Q: And the residual activity [13]?
A: 100%

Q: And the residual activity [14]?
A: 100%

Q: And the inhibition [15]?
A: 4.26%

Q: What about the inhibition [16] of the same compound?
A: -3%

Q: And the “Cell Proliferation IC50” value [17]?
A: 1200 nM

Q: What about the inhibition [18] of the same compound?
A: 24%

Q: And the residual activity [19]?
A: 100%

Q: What about the residual activity [20] of the same compound?
A: 88%

Q: And the residual activity [21]?
A: 39%

Q: What about the residual activity [22] of the same compound?
A: 87%

Q: What about the residual activity [23] of the same compound?
A: 100%

Q: What about the inhibition [24] of the same compound?
A: 26%

Q: What about the residual activity [25] of the same compound?
A: 100%

Q: What about the residual activity [26] of the same compound?
A: 87%

Q: What about the residual activity [27] of the same compound?
A: 100%

Q: And the residual activity [28]?
A: 65%

Q: And the residual activity [29]?
A: 100%

Q: What about the residual activity [30] of the same compound?
A: 100%

Q: And the residual activity [31]?
A: 81%

Q: What about the residual activity [32] of the same compound?
A: 97%

Q: What about the residual activity [33] of the same compound?
A: 65%

Q: And the IC50 [34]?
A: 1 nM (active)

Q: What about the residual activity [35] of the same compound?
A: 96%

Q: What about the residual activity [36] of the same compound?
A: 100%

Q: And the residual activity [37]?
A: 82%

Q: And the inhibition [38]?
A: 2%

Q: What about the residual activity [39] of the same compound?
A: 95%

Q: And the residual activity [40]?
A: 100%

Q: And the inhibition [41]?
A: 9%

Q: And the IC50 [42]?
A: 29 nM (active)
